System: Staphylococcal fluid
Test: Mouse pneumonia model, bacterial
Format: in vivo, BALB/C mice
Design: concentration or dose not given beside the values
Conditions: mean ± SD
Description: The mouse pneumonia model was successfully established by the nose-drop method. To build the mouse pneumonia model, BALB/C mice with a body mass of 16-22 g were selected and anesthetized pneumonia chain was prepared after anesthesia with ether on day 0, day 1, and day 2. Staphylococcal fluid, adenovirus concentrate, Mycoplasma pneumoniae, Chlamydia pneumoniae, protozoa, and pneumonia fungi were slowly dripped into the nasal cavity of the mice, so that they enter the tracheobronchial. During the operation process, care was exercised to prevent bacterial fluid from flowing into the esophagus, which leads to inactivation the bacterial fluid. After successful model establishment, the polypeptides of the present invention were administered, and the results were shown in Table 5. […] The results were expressed in average value±standard deviation.

Substance | Inhibitory Effects on Various Pulmonary Infections
Arg-Gly-Asp-Gly-Gly-Gly-Gly-Ile-Val-Arg-Arg-Ala-Asp-Arg-Ala-Ala-Val-Pro-Gly-Gly-Gly-Gly-Pro-(D-Pyr)-(D-Cys)-Bip-Arg-Gly-Glu [Polypeptide IV] | 44.75 ± 13.08%
Arg-Gly-Asp-Gly-Gly-Gly-Gly-Pro-(D-Pyr)-(D-Cys)-Bip-Arg-Gly-Glu-Gly-Gly-Gly-Gly-Ile-Val-Arg-Arg-Ala-Asp-Arg-Ala-Ala-Val-Pro [Polypeptide III] | 47.07 ± 13.26%
Ile-Val-Arg-Arg-Ala-Asp-Arg-Ala-Ala-Val-Pro-Gly-Gly-Gly-Gly-Arg-Gly-Asp-Gly-Gly-Gly-Gly-Pro-(D-Pyr)-(D-Cys)-Bip-Arg-Gly-Glu [Polypeptide V] | 38.12 ± 11.17%
Ile-Val-Arg-Arg-Ala-Asp-Arg-Ala-Ala-Val-Pro-Gly-Gly-Gly-Gly-Pro-(D-Pyr)-(D-Cys)-Bip-Arg-Gly-Glu-Gly-Gly-Gly-Gly-Arg-Gly-Asp [Polypeptide II] | 43.43 ± 12.38%
Pro-(D-Pyr)-(D-Cys)-Bip-Arg-Gly-Glu-Gly-Gly-Gly-Gly-Arg-Gly-Asp-Gly-Gly-Gly-Gly-Ile-Val-Arg-Arg-Ala-Asp-Arg-Ala-Ala-Val-Pro [Polypeptide VI] | 39.78 ± 9.86%
Pro-(D-Pyr)-(D-Cys)-Bip-Arg-Gly-Glu-Gly-Gly-Gly-Gly-Ile-Val-Arg-Arg-Ala-Asp-Arg-Ala-Ala-Val-Pro-Gly-Gly-Gly-Gly-Arg-Gly-Asp [Polypeptide I] | 33.15 ± 10.06%

Reference: patent publication US20190031717A1, “MULTI-FUNCTIONAL FUSION POLYPEPTIDE, PREPARATION METHOD THEREOF, AND APPLICATION OF SAME” (NANJING ANJI BIOLOGICAL TECHNOLOGY CO., LTD, priority 2016, published 2019)
